Patent publication US10160986B2, “Chemoenzymatic synthesis of heparin and heparan sulfate analogs” (The Regents of the University of California, priority 2011, dated 2018)

Legend:
[1] = system: necrotizing enterocolitis in neonatal rats; assay: Necrotizing enterocolitis neonatal rat model; type: in vivo, Sprague-Dawley rats; details: formula containing 300 μg/mL glycan; for mean ileum pathology score (0: healthy; 4: complete destruction): oral gavage twice daily, 96 hours, mean±standard deviation
Method: Rat studies. The efficacy of the synthesized glycans against necrotizing enterocolitis was tested in the same neonatal rat model as previously described for DSLNT. Briefly, pregnant time-dated Sprague-Dawley rats were induced at term and immediately randomized into one of the different study groups. Animals in the dam-fed group (DF) remained with the dam. All other animals were separated from the dam, housed in a temperature- and humidity-controlled incubator and orally gavaged with a special rodent formula (0.2 mL) twice daily. All animals, dam-fed and gavaged, were exposed to 10 min of hypoxia (5% O2, 95% N2) thrice daily in a modular chamber. All animals were sacrificed 96 hours post-partum, and 0.5 cm of the terminal ileum prepared for H&E staining per standard protocols and scored blindly based on morphological changes that included epithelial sloughing, villus edema, infiltration of neutrophils, apoptosis of villus enterocytes, crypt hyperplasia and misaligned nuclei in the epithelium. If at least one pathology sign was observed, a score of 0.5-1.5 was assigned depending on severity. […] The maximum score of 4 was given in case of complete obliteration of the epithelium with or without intestinal perforation. Pathology scores were plotted for each animal and the mean calculated per group. Differences between the groups were calculated by 1 way ANOVA with Kruskal-Wallis test and Dunn's Multiple Comparison test. Significance was defined as a P value of less than 0.05.

[2] = system: KfiA; assay: Donor substrate specificity of KfiA by HPLC (Example 1); type: biochemical, E. coli; details: acceptor GlcAα2AA 1 mM, UDP-sugar 1 mM, MnCl2 10 mM, pH 6.5, 37° C.
Method: (§1) pH profile by HPLC. Typical enzymatic assays were performed in a 10 μl reaction mixture containing a buffer (100 mM) with a pH in the range of 4.0-10.0, UDP-GlcNAc (1 mM), GlcAβ2AA (1 mM), MnCl2 (10 mM) and KfiA (9.0 μg) or PmHS2 (0.25 μg). Buffers used were: Na2HPO4/citric acid, pH 4.0; MES, pH 5.0-6.5; TrisHCl, pH 7.0-9.0; and CAPS, pH 10.0. Reactions were allowed to proceed for 30 min at 37° C. and were quenched by adding ice-cold 10% (v/v) acetonitrile to make 100-fold dilutions. The samples were then kept on ice until an aliquot of 8 μl was injected and analyzed by a Shimadzu LC-2010A system equipped with a membrane on-line degasser, a temperature control unit and a fluorescence detector. A reverse phase Premier C18 column (250 9 4.6 mm I.D., 5 μm particle size, Shimadzu) protected with a C18 guard column cartridge was used. The mobile phase was 25% (v/v) acetonitrile. The fluorescent compounds GlcAβ2AA and GlcNAcα1-4GlcAβ2AA were detected by excitation at 315 nm and emission at 400 nm.
(§2) Substrate specificity of KfiA and PmHS2. All reactions were carried out in duplicate at 37° C. in MES (100 mM, pH 6.5) containing an UDP-GlcNAc or its derivatives (1 mM), […] (1 mM), MnCl2 (10 mM) and KfiA ([…] PmHS2 (2.5×10^−2 μg μl^−1). At 30 min, 4 h or 16 h, aliquots of reaction mixture were withdrawn and were quenched by adding ice-cold 10% (v/v) acetonitrile to make 100-fold dilutions. The assays were analyzed by HPLC.

[3] = system: PmHS2; assay: Small-scale PmHS2 donor substrate test by TLC; type: biochemical, Pasteurella multocida; details: GlcAβ2AAMe 10 mM, donor 15 mM, MgCl2 10 mM, PmHS2 0.5 mg/mL, pH 7.5, 37° C., 12 hr
[4] = system: PmHS2; assay: Donor substrate specificity of PmHS2 by HPLC (Example 1); type: biochemical, Pasteurella multocida; details: acceptor GlcAα2AA 1 mM, UDP-sugar 1 mM, MnCl2 10 mM, pH 6.5, 37° C.
Method: as §1, §2

[5] = system: NahK; assay: Kinase reaction monitored by CE (ATP to ADP), NahK; type: biochemical, Bifidobacterium infantis; details: monosaccharide 15 mM, ATP 18 mM, 37° C.
Method: (§3) Capillary electrophoresis (CE) and thin-layer chromatograph (TLC) assays for kinase reactions. Kinase reactions were carried out at 37° C. in a total volume of 30 μL in Tris-HCl buffer (100 mM, pH 8.0) containing monosaccharide (15 mM), ATP (18 mM, 1.2 eq.), MgCl2 (10 mM), and a kinase (6 μg). These conditions were similar to those used for preparative-scale synthesis. After 1 hr, 4 hr, and 24 hr, an aliquot of 8 μL was withdrawn from each reaction mixture, boiled in a water bath for 5 min and stored at −20° C. until being analyzed by capillary electrophoresis (CE) and TLC. For TLC analysis, 0.5 μL of each sample was directly spotted on TLC plates, developed using suitable developing solvents, and stained with anisaldehyde sugar stain. For CE analysis, 1.5 μL of each sample was diluted into 30 μL and subjected to CE analysis as described above for pH profile studies.
General methods for compound purification and characterization. Chemicals were purchased and used without further purification. ^1H NMR and ^13C NMR spectra were recorded on a Varian Mercury 600 NMR spectrometer. High resolution electrospray ionization (ESI) mass spectra were obtained in negative mode using Thermo Electron LTQ-Orbitrap mass spectrometer. Silica gel 60 Å (Sorbent Technologies) was used for flash column chromatography. Thin-layer chromatography (TLC) was performed on silica gel plates 60 GF254 (Sorbent Technologies) using anisaldehyde sugar stain for detection. Gel filtration chromatography was performed with a column (100 cm×2.5 cm) packed with BioGel P-2 Fine resins (Bio-Rad). GlcN3 (T6-9) (Lau K, Thon, V, Yu H, Ding L, Chen Y, Muthana M M, Wong D, Huang R, and Chen X. Chem. Commun. 2010, 46, 6066-6068), ManF (T6-11) (Burkart M D, Zhang Z, Hung S-C, and Wong C-H. J. Am. Chem. Soc. 1997, 119, 11743-11746; Cao H, Li Y, Lau K, Muthana S, Yu H, Cheng J, Chokhawala H A, Sugiarto G, Zhang L, and Chen X. Org. Biomol. Chem. 2009, 7, 5137-5145), GalN3 (T6-4) and ManN3 (T6-14) (Yu H, Yu H, Karpel R, cand Chen X. Bioorg. Med. Chem. 2004, 12, 6427-6435) were previously synthesized using reported methods. NahK_ATCC15697, EcGalK, SpGalK, and PmPpA were overexpressed as described previously.

[6] = molecular target: T1, EcGalK (Escherichia coli, UniProt P0A6T3); assay: Kinase reaction monitored by CE (ATP to ADP), EcGalK; type: biochemical; details: monosaccharide 15 mM, ATP 18 mM, 37° C.
T1 construct: made in house
Method: as §3, with “Kinase reactions were carried out at 37° C. in a total volume of 30 μL in Tris-HCl buffer (100 mM, pH 8.0) containing monosaccharide (15 mM), ATP (18 mM, 1.2 eq.), MgCl2 (10 mM), and a kinase (6 μg).” left out

[7] = molecular target: T2, SpGalK (Streptococcus pneumoniae serotype 4, UniProt Q97NZ6); assay: Kinase reaction monitored by CE (ATP to ADP), SpGalK; type: biochemical, Streptococcus pneumoniae TIGR4; details: monosaccharide 15 mM, ATP 18 mM, 37° C.
T2 construct: made in house
Method: as §3, with “Kinase reactions were carried out at 37° C. in a total volume of 30 μL in Tris-HCl buffer (100 mM, pH 8.0) containing monosaccharide (15 mM), ATP (18 mM, 1.2 eq.), MgCl2 (10 mM), and a kinase (6 μg).” left out

[8] = molecular target: NahK_ATCC15697 (Bifidobacterium longum, UniProt B7GN78); assay: Substrate specificity CE assay, NahK_ATCC15697; type: biochemical, Bifidobacterium infantis; details: Glc, Gal, Man, ManNAc and derivatives; enzyme 15, 37° C. for 30 min (Table 3); listed as drawing 47
[9] = molecular target: NahK_ATCC55813 (Bifidobacterium longum subsp. longum, UniProt E8MF12, D7V/R348H); type: biochemical; design: made in house; host or cells: E. coli BL21(DE3); details: Glc, Gal, Man, ManNAc and derivatives; enzyme 15, 37° C. for 30 min (Table 3); listed as drawing 47
[10] = molecular target: T3, AtGlcAK (Arabidopsis thaliana, UniProt Q93ZC9, I297M); assay: AtGlcAK substrate specificity CE assay; type: biochemical; details: High enzyme Conc. (2.1 μg in 20 μL, 60 min, 37° C.)
T3 construct: made in house; host or cells: E. coli BL21 (DE3)
Method: Substrate specificity assays. […] The reactions were quenched and assayed with the same method as those for pH profile. All reactions were performed in duplicates.

[11] = system: His6-PmHS2; assay: GlcNAcT donor substrate specificity of His6-PmHS2 (Example 12); type: biochemical, Pasteurella multocida; details: acceptor GlcAβ2AA 1 mM, UDP-sugar 1 mM, MnCl2 10 mM, PmHS2 1.1 μg μl^−1, 24 h, 37° C.
How it was run: (§4)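 In MES (100 mM, pH 6.5) with 1 mM UDP-GlcNAc or derivative, 1 mM GlcAβ2AA acceptor and 10 mM MnCl2, with KfiA (2.8 μg μl^−1) or PmHS2 (1.1 μg μl^−1); 37° C, 24 h, duplicate. Product-to-acceptor ratio measured by fluorescence HPLC (ex 315/em 400 nm).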

[12] = system: T4, MBP-KfiA-His6 (Escherichia coli); assay: GlcNAcT donor substrate specificity of MBP-KfiA-His6 (Example 12); type: biochemical, E. coli; details: acceptor GlcAβ2AA 1 mM, UDP-sugar 1 mM, MnCl2 10 mM, KfiA 2.8 μg μl^−1, 24 h, 37° C.
T4 construct: made in house; host or cells: E. coli BL21(DE3) co-expressing chaperone plasmid pGro7
How it was run: as §4

## CC(=O)N[C@H]1[C@H](O[C@H]2[C@@H](O)[C@@H](CO)O[C@@H](O[C@H]3[C@H](O)[C@@H](O)C(O)O[C@@H]3CO)[C@@H]2O)O[C@H](CO)[C@@H](O[C@@H]2O[C@H](CO)[C@H](O)[C@H](O[C@]3(C(=O)O)C[C@H](O)[C@@H](NC(C)=O)[C@H]([C@H](O)[C@H](O)CO)O3)[C@H]2O)[C@@H]1O (some centres unmarked) [3′″-sLNnT, Neu5Acα2-3Galβ1-4GlcNAcβ1-3Galβ1-4Glc]
[1]
  NEC preventing effect in neonatal rats: lacking of NEC preventing effect
  mean ileum pathology score (0: healthy; 4: complete destruction): 2.05±0.55

## Neu5Acα2-6Galβ1-4GlcNAcβ1-3(Neu5Acα2-6)Galβ1-4Glc [DSLNnT]
[1]
  NEC preventing effect in neonatal rats: protects neonatal rats from necrotizing enterocolitis
  mean ileum pathology score (0: healthy; 4: complete destruction): 1.29±0.54

## O=C(NC1C(OP(=O)(O)OP(=O)(O)OCC2OC(n3ccc(=O)[nH]c3=O)C(O)C2O)OC(CO)C(O)C1O)C(F)(F)F [Compound F17-2, Uridine 5′-diphospho-2-deoxy-2-trifluoroacetamido-α-D-glucopyranoside]
[2]
  donor substrate for KfiA: can use
[3]
  donor substrate for PmHS2: tolerable donor substrates
[4]
  donor substrate for PmHS2: can use

## OCC1OC(O)C(O)[C@@H](O)[C@@H]1O (some centres unmarked) [Glc, glucose]
[5]; 4 hr
  ATP Conversion: 18.6%
[5]; 24 hr
  ATP Conversion: 82.2%
[6]; 1 hr
  ATP Conversion: 8.2%
[6]; 4 hr
  ATP Conversion: 13.0%
[6]; 24 hr
  ATP Conversion: 66.4%
[7]; 1 hr
  ATP Conversion: 6.9%
[7]; 4 hr
  ATP Conversion: 13.8%
[7]; 24 hr
  ATP Conversion: 75.5%
[8]
  Percentage Conversion: 9.1 ± 0.1%
[9]
  Percentage Conversion: 4.7 ± 0.1%
[10]
  Percentage conversion of ATP: <5%

## O=C(CO)N[C@H]1[C@@H](OP(=O)(O)OP(=O)(O)OC[C@H]2O[C@@H](n3ccc(=O)[nH]c3=O)[C@H](O)[C@@H]2O)O[C@H](CO)[C@@H](O)[C@@H]1O [Compound F17-3, Uridine 5′-diphospho-2-hydroxyacetamido-2-deoxy-α-D-glucopyranoside]
[2]
  donor substrate for KfiA: can use
[3]
  donor substrate for PmHS2: tolerable donor substrates
[4]
  donor substrate for PmHS2: can use

## CC(=O)N[C@H]1[C@@H](OP(=O)(O)OP(=O)(O)OC[C@H]2O[C@@H](n3ccc(=O)[nH]c3=O)[C@H](O)[C@@H]2O)O[C@H](CO)[C@@H](O)[C@@H]1O [Compound F17-1, Uridine 5′-diphospho-2-acetamido-2-Deoxy-α-D-glucopyranoside]
[2]
  donor substrate for KfiA: best substrate
[3]
  donor substrate for PmHS2: tolerable donor substrates
[11]
  donor substrate for the α1-4GlcNAcT activity of His6-PmHS2: suitable donor substrates for His6-PmHS2
[4]
  donor substrate for PmHS2: best substrate
[12]
  donor substrate for MBP-KfiA-His6: can be used by MBP-KfiA-His6

## [N-]=[N+]=NCC(=O)N[C@H]1[C@@H](OP(=O)(O)OP(=O)(O)OC[C@H]2O[C@@H](n3ccc(=O)[nH]c3=O)[C@H](O)[C@@H]2O)O[C@H](CO)[C@@H](O)[C@@H]1O [Compound F17-4, Uridine 5′-diphospho-2-azidoxyacetamido-2-deoxy-α-D-glucopyranoside]
[2]
  donor substrate for KfiA: can use
[3]
  donor substrate for PmHS2: tolerable donor substrates
[4]
  donor substrate for PmHS2: can use
